Results published in patent US9669003B2, “Use of flavone and flavanone derivatives in preparation of sedative and hypnotic drugs” (priority 2012, dated 2017).
Marks after values point to notes of the source that are not given here.

Experiments:
Type in all cases: in vivo
[1] = tested on: Kunming mice; experiment: Influence on autonomic activity of normal mice (ZIL-2 mice autonomic activity meter, counts within 10 min); settings: intragastric, x ± s, n = 10; for Times of activities in 1 h after drug administration/10 min: 1 h after administration; for Times of activities in 2 h after drug administration/10 min: 2 h after administration; for Times of activities in 24 h after drug administration/10 min: 24 h after administration
Summary of the method: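 Activity counts during a 10-min window were taken at 1, 2 and 24 h after dosing in groups of 10 mixed-sex Kunming mice. Compounds were given in 0.5% CMC-Na at 25, 50 or 100 mg/kg. Statistics used Levene's homogeneity test, ANOVA and Dunnett's multiple comparisons.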

[2] = tested on: Kunming mice; experiment: Influence on hypnosis effect with pentobarbital sodium doses below the threshold (25 mg/kg i.p.); settings: pentobarbital sodium 25 mg/kg i.p. 60 min later, sleep observed in 30 min, n = 10
Summary of the method: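 Percentage of mice sleeping within 30 min after subthreshold pentobarbital sodium (25 mg/kg i.p.), defined by loss of righting reflex over 1 min, analysed by χ2. Compound in 0.5% CMC-Na given intragastrically at 25/50/100 mg/kg 60 min before; groups of 10 Kunming mice, both sexes.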

[3] = tested on: Kunming mice; experiment: Influence on hypnosis effect with pentobarbital sodium doses at the threshold (50 mg/kg i.p.); settings: pentobarbital sodium 50 mg/kg i.p. 60 min later, x ± s, n = 10
Summary of the method: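 Pentobarbital sodium (0.3%, 50 mg/kg i.p.) injected 60 min after a single intragastric dose (25, 50, 100 mg/kg, 0.5% CMC-Na vehicle) in Kunming mice, 10 per group, sexes balanced. Onset and length of sleep (righting reflex lost over 1 min) analysed by ANOVA; sleeping incidence by χ2 test.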

[4] = test drug 25 mg/kg intragastric single dose
[5] = test drug 50 mg/kg intragastric single dose
[6] = test drug 100 mg/kg intragastric single dose
[7] = 25 mg/kg intragastric single dose
[8] = 50 mg/kg intragastric single dose
[9] = 100 mg/kg intragastric single dose

| SMILES | Times of activities in 1 h after drug administration/10 min ([1]; 25 mg/kg) | Times of activities in 2 h after drug administration/10 min ([1]; 25 mg/kg) | Times of activities in 24 h after drug administration/10 min ([1]; 25 mg/kg) | Times of activities in 1 h after drug administration/10 min ([1]; 50 mg/kg) | Times of activities in 2 h after drug administration/10 min ([1]; 50 mg/kg) | Times of activities in 24 h after drug administration/10 min ([1]; 50 mg/kg) | Times of activities in 1 h after drug administration/10 min ([1]; 100 mg/kg) | Times of activities in 2 h after drug administration/10 min ([1]; 100 mg/kg) | Times of activities in 24 h after drug administration/10 min ([1]; 100 mg/kg) | Number of sleeping animals [2, 4] | rate of sleeping (%) [2, 4] | Number of sleeping animals [2, 5] | rate of sleeping (%) [2, 5] | Number of sleeping animals [2, 6] | rate of sleeping (%) [2, 6] | duration of sleep [3, 7] [min] | time to sleep [3, 7] [min] | duration of sleep [3, 8] [min] | time to sleep [3, 8] [min] | duration of sleep [3, 9] [min] | other results |
| --- | --- | --- | --- | --- | --- | --- | --- | --- | --- | --- | --- | --- | --- | --- | --- | --- | --- | --- | --- | --- | --- |
| C=Cc1cc(-c2cc(=O)c3c(C4CCSC4)cc(C(N)=O)cc3o2)cc(N)c1CC (stereo not drawn) [Example 17] | 284.9 ± 49.3 /10 min | 280.1 ± 42.7 /10 min | 306.2 ± 81.3 /10 min | 176.6 ± 50.2 /10 min | 189.3 ± 57.3 /10 min | 291.5 ± 70.0 /10 min | 153.1 ± 38.4 /10 min | 135.9 ± 48.7 /10 min | 302.1 ± 89.0 /10 min | 3 | 30% | 6 | 60** % | 7 | 70** % | 32.56 ± 25.95 | 5.55 ± 1.45 | 45.62 ± 21.08 | 3.97 ± 1.26 | 57.86 ± 25.22 | time to sleep [3, 9]: 3.96 ± 1.14 min |
| CC=Cc1cc(Cc2ccccc2)c2c(=O)cc(-c3cc(C#N)c([N+](=O)[O-])c(Cc4ccccc4)c3)oc2c1 [Example 25] | 286.3 ± 48.9 /10 min | 279.9 ± 41.7 /10 min | 295.2 ± 82.3 /10 min | 185.3 ± 51.1 /10 min | 190.2 ± 56.9 /10 min | 296.3 ± 91.1 /10 min | 135.6 ± 39.4 /10 min | 136.8 ± 47.9 /10 min | 281.6 ± 93.7 /10 min | 4 | 40* % | 7 | 70** % | 7 | 70** % | 41.02 ± 18.97 | 4.41 ± 1.67 | 62.87 ± 28.45 | 3.84 ± 1.31 | 70.23 ± 23.65 | time to sleep [3, 9]: 3.05 ± 1.20 min |
| CCCc1cc2c(=O)cc(-c3ccc(C(=O)O)c(C(N)=O)c3)oc2c(I)c1CCS(=O)(=O)O [Example 35] | 336.84 ± 57.8 /10 min | 278.8 ± 49.0 /10 min | 307.4 ± 69.8 /10 min | 310.3 ± 48.9 /10 min | 244.8 ± 39.6 /10 min | 308.1 ± 954 /10 min | 266.8 ± 50.1 /10 min | 219.6 ± 47.7 /10 min | 321.5 ± 72.9 /10 min | 4 | 40* % | 6 | 60** % | 7 | 70** % | 38.25 ± 15.16 | 4.35 ± 1.42 | 57.54 ± 28.39 | 3.88 ± 1.16 | 58.38 ± 26.82 | time to sleep [3, 9]: 3.76 ± 1.49 min |
